Drawing on ChEMBL document CHEMBL1857833, “Screening and optimization of specific chemical series against human African Trypanosomiasis (HAT)”, this text covers IC50 for 37 compounds.

Each structure is given as a SMILES string. ≈ marks a conversion by molar mass, not a printed value. Where “and” joins values, the source holds several entries; their conditions need not be identical. Equal values may be shown once. Bounds are passed on as bounds.

One series deals with Trypanosoma brucei. In words: DNDI: Inhibition of Human African Trypanosomiasis, SBRI 427, in vitro. It is filed as functional, organism-based.
Series [1] is described as follows: DNDI: Cytotoxicity against L929 mouse fibroblasts, CYTO-SP, 24 hour. The note with it: mouse, L929 mouse fibroblasts. The series is classed as toxicity, cell-based.
Setting [2] is: Trypanosoma brucei, SBRI 427, read-out: IC50.

By IC50 is commonly meant the concentration needed to halve the response being measured. In the case of `CCC(CC)N/C(=N\O)c1cccnc1Oc1ccc(C)c2c1CCC2`, in the series with Trypanosoma brucei (setting [2]), the IC50 stood at 0.37 µg/mL (≈ 1.05 µM). Besides, the half-maximal inhibitory concentration (IC50) at 24 h in series [1] was above 50 µg/mL.

Regarding `Cc1cc(C)cc(CN/C(=N\O)c2cccnc2Oc2c(F)cccc2F)c1`, the IC50 with Trypanosoma brucei (setting [2]) was determined as 1.08 µg/mL (≈ 2.82 µM). The compound also yielded a 50% inhibitory concentration (IC50) at 24 h in series [1] above 50 µg/mL.

For the compound `CN1CCCC1CCNCc1coc(-c2ccc(Br)cc2)n1` (stereo not given), in the series with Trypanosoma brucei, the half-maximal inhibitory concentration (IC50) is 1.22 µg/mL and 0.45 µg/mL. The IC50 at 24 h in series [1] is 25.1 µg/mL (≈ 68.9 µM).

`Cc1ccc(Oc2nc(C)ccc2/C(=N/O)NC2CCCCC2)c(C)c1`: in the series on Trypanosoma brucei, the IC50 is 0.78 µg/mL and 0.28 µg/mL. In series [1], this compound registered a half-inhibitory concentration (IC50) at 24 h of 34 µg/mL (≈ 96.2 µM).

Consider `N#Cc1cccnc1Oc1ccccc1F`, for which the IC50 with Trypanosoma brucei (setting [2]) is above 5 µg/mL. The 50% inhibitory concentration (IC50) at 24 h in series [1] was above 50 µg/mL.

On to `O=C(NC1CCCCC1)c1cccnc1Cl`, for which the half-maximal inhibitory concentration (IC50) with Trypanosoma brucei (setting [2]) is above 5 µg/mL. This compound yielded a half-inhibitory concentration (IC50) at 24 h in series [1] above 50 µg/mL.

On to `COc1ccccc1Oc1ncccc1C#N`, for which, in the series on Trypanosoma brucei (setting [2]), the IC50 is above 5 µg/mL. The half-maximal inhibitory concentration (IC50) at 24 h in series [1] is above 50 µg/mL.

With `CSc1ccccc1Oc1ncccc1/C(N)=N\O`, the half-inhibitory concentration (IC50) with Trypanosoma brucei (setting [2]) was above 5 µg/mL. Besides, in series [1], the half-inhibitory concentration (IC50) at 24 h was above 5 µg/mL.

On to `O/N=C(\NCc1c(F)cccc1F)c1cccnc1Oc1c(F)cccc1F`, for which the IC50 in the series with Trypanosoma brucei (setting [2]) was 1.15 µg/mL (≈ 2.94 µM). Besides, the 50% inhibitory concentration (IC50) at 24 h in series [1] was above 50 µg/mL.

As to `CC(C)N1CCN(/C(=N\O)c2cccnc2Oc2cccc(C(F)(F)F)c2)CC1`, in the series with Trypanosoma brucei (setting [2]), the IC50 was 0.73 µg/mL (≈ 1.79 µM). The same compound displayed a concentration for half-maximal inhibition (IC50) at 24 h in series [1] above 50 µg/mL.

For the compound `COc1ccc(Oc2ncccc2/C(=N/O)NCC2CC2)cc1`, in the series with Trypanosoma brucei (setting [2]), the IC50 came out at 0.34 µg/mL (≈ 1.09 µM). In series [1], this compound had an IC50 at 24 h above 50 µg/mL.

For `COCC(C)N/C(=N\O)c1cccnc1Oc1ccc(C(C)C)cc1` (stereo not given), in the series on Trypanosoma brucei (setting [2]), the IC50 stood at 0.92 µg/mL (≈ 2.68 µM). The concentration for half-maximal inhibition (IC50) at 24 h in series [1] was above 50 µg/mL.

Take `O/N=C(\NC1CCCC1)c1cccnc1Oc1c(F)cccc1F`: in the series with Trypanosoma brucei (setting [2]), the IC50 is 0.23 µg/mL (≈ 0.69 µM). The IC50 at 24 h in series [1] is above 50 µg/mL.

Turning to `O/N=C(\NCc1ccccc1)c1cccnc1Oc1cc(Cl)ccc1Cl`, the IC50 with Trypanosoma brucei (setting [2]) is 0.77 µg/mL (≈ 1.98 µM). In series [1], this compound showed an IC50 at 24 h above 50 µg/mL.

As for `O=C(NC1CCCCC1)c1cccnc1Oc1ccccc1Cl`, in the series on Trypanosoma brucei (setting [2]), the concentration for half-maximal inhibition (IC50) is above 5 µg/mL. For the same compound, in series [1], the half-maximal inhibitory concentration (IC50) at 24 h was above 50 µg/mL.

In the case of `CC(C)COc1ncccc1/C(=N/O)NCC(C)(C)C`, the IC50 in the series with Trypanosoma brucei (setting [2]) is 1.12 µg/mL (≈ 4.01 µM). The IC50 at 24 h in series [1] was above 50 µg/mL.

For `COCCN/C(=N\O)c1cccnc1Oc1ccc(C(C)C)cc1`, in the series on Trypanosoma brucei (setting [2]), the half-inhibitory concentration (IC50) is 1.04 µg/mL (≈ 3.16 µM). Also, in series [1], the IC50 at 24 h was above 50 µg/mL.

Take `N/C(=N/O)c1cccnc1Oc1ccccc1Br`: the IC50 in the series with Trypanosoma brucei (setting [2]) is above 5 µg/mL. The same compound displayed a half-maximal inhibitory concentration (IC50) at 24 h in series [1] above 50 µg/mL.

`CC1CC(NCc2coc(-c3ccc(C(F)(F)F)cc3)n2)CC(C)(C)C1` (stereo not given): the IC50 with Trypanosoma brucei came to 0.54 µg/mL (≈ 1.47 µM); in the series on Trypanosoma brucei (setting [2]), 1.07 µg/mL (≈ 2.92 µM). The same compound had a half-inhibitory concentration (IC50) at 24 h in series [1] above 50 µg/mL.

Consider `CC1CCCCN1CCCNCc1coc(-c2ccc(Cl)cc2Cl)n1` (stereo not given), for which the concentration for half-maximal inhibition (IC50) in the series on Trypanosoma brucei was 2.68 µg/mL and 1.13 µg/mL. For the same compound, the IC50 at 24 h in series [1] is 42.2 µg/mL (≈ 110 µM).

In the case of `O/N=C(\NCC1CCCCC1)c1cccnc1Oc1c(F)cccc1F`, the IC50 in the series with Trypanosoma brucei (setting [2]) amounted to 0.91 µg/mL (≈ 2.52 µM). Also, the IC50 at 24 h in series [1] was above 50 µg/mL.

In the case of `CCC(CC)N/C(=N\O)c1ccc(C)nc1Oc1ccc(SC)cc1`, the concentration for half-maximal inhibition (IC50) with Trypanosoma brucei (setting [2]) came out at 1.08 µg/mL (≈ 3 µM). The compound further had an IC50 at 24 h in series [1] above 50 µg/mL.

As for `CCOc1ccccc1CN/C(=N\O)c1cccnc1Oc1ccc(C)c2c1CCC2`, the concentration for half-maximal inhibition (IC50) with Trypanosoma brucei (setting [2]) stood at 0.73 µg/mL (≈ 1.75 µM). Moreover, the IC50 at 24 h in series [1] is above 50 µg/mL.

For `Cc1ccccc1CN/C(=N\O)c1cccnc1Oc1cc(Cl)ccc1Cl`, the IC50 in the series with Trypanosoma brucei (setting [2]) was found to be 1.06 µg/mL (≈ 2.63 µM). In series [1], this compound displayed an IC50 at 24 h of 33.6 µg/mL (≈ 83.6 µM).

With `CCc1ccc(Oc2ncccc2/C(=N/O)NCCOC)cc1`, the IC50 in the series on Trypanosoma brucei (setting [2]) was 1.12 µg/mL (≈ 3.55 µM). The compound also came in with an IC50 at 24 h in series [1] above 50 µg/mL.

For the compound `COc1cc(C)ccc1Oc1ncccc1/C(N)=N/O`, the IC50 in the series on Trypanosoma brucei (setting [2]) is above 5 µg/mL. In series [1], this compound displayed a concentration for half-maximal inhibition (IC50) at 24 h above 5 µg/mL.

Turning to `CC(C)Oc1ccccc1Oc1ncccc1/C(=N/O)NC1CCCCC1`, the concentration for half-maximal inhibition (IC50) with Trypanosoma brucei (setting [2]) was 0.46 µg/mL (≈ 1.25 µM). This compound also showed a 50% inhibitory concentration (IC50) at 24 h in series [1] above 50 µg/mL.

`CC(C)(C)CN/C(=N\O)c1cccnc1Oc1c(F)cccc1F`: the IC50 in the series with Trypanosoma brucei (setting [2]) amounted to 0.39 µg/mL (≈ 1.16 µM). Further, 45.4 µg/mL (≈ 135 µM) corresponded to half-maximal inhibition in series [1] (IC50 at 24 h).

In the case of `O/N=C(\NC1CCCCC1)c1cccnc1Oc1ccc2ccccc2c1`, the half-inhibitory concentration (IC50) with Trypanosoma brucei (setting [2]) was found to be 0.08 µg/mL (≈ 0.221 µM). In addition, the concentration for half-maximal inhibition (IC50) at 24 h in series [1] was above 50 µg/mL.

For `CC1CC(N/C(=N\O)c2cccnc2Oc2cc(Cl)ccc2Cl)CC(C)(C)C1` (stereo not given), the IC50 with Trypanosoma brucei (setting [2]) came to 0.03 µg/mL (≈ 0.071 µM). Besides, in series [1], half-maximal inhibition (IC50 at 24 h) required 30.9 µg/mL (≈ 73.2 µM).

Turning to `COc1ccc(Oc2ncccc2/C(=N/O)NC2CCC2)cc1`, the IC50 in the series with Trypanosoma brucei (setting [2]) was determined as 0.28 µg/mL (≈ 0.894 µM). In addition, in series [1], the concentration for half-maximal inhibition (IC50) at 24 h was above 50 µg/mL.

Consider `CC1CC(N/C(=N\O)c2cccnc2Oc2ccccc2OC(C)C)CC(C)(C)C1` (stereo not given), for which the IC50 with Trypanosoma brucei (setting [2]) was found to be 1.06 µg/mL (≈ 2.58 µM). For the same compound, the half-inhibitory concentration (IC50) at 24 h in series [1] is above 50 µg/mL.

Regarding `CC1CCC(N/C(=N\O)c2cccnc2Oc2c(F)cccc2F)CC1` (stereo not given), the half-inhibitory concentration (IC50) in the series on Trypanosoma brucei (setting [2]) amounted to 0.99 µg/mL (≈ 2.74 µM). Further, the IC50 at 24 h in series [1] is above 50 µg/mL.

Consider `CC1CC(N/C(=N\O)c2cccnc2Oc2ccc(F)c(Cl)c2)CC(C)(C)C1` (stereo not given), for which the IC50 in the series on Trypanosoma brucei (setting [2]) was determined as 0.07 µg/mL (≈ 0.172 µM). In series [1], this compound came in with a concentration for half-maximal inhibition (IC50) at 24 h of 28.2 µg/mL (≈ 69.4 µM).

In the case of `COc1cc(C)ccc1Oc1nc(C)ccc1/C(=N/O)NCC(C)(C)C`, the IC50 with Trypanosoma brucei (setting [2]) was determined as 0.09 µg/mL (≈ 0.252 µM). Moreover, the IC50 at 24 h in series [1] is below 50 µg/mL.

Regarding `CCC(CC)N/C(=N\O)c1cccnc1Oc1c(F)cccc1F`, in the series with Trypanosoma brucei (setting [2]), the IC50 stood at 0.31 µg/mL (≈ 0.924 µM). In series [1], this compound displayed an IC50 at 24 h above 50 µg/mL.

Take `CC1CC(N/C(=N\O)c2cccnc2Oc2c(F)cccc2F)CC(C)(C)C1` (stereo not given): the 50% inhibitory concentration (IC50) in the series on Trypanosoma brucei (setting [2]) stood at 1.12 µg/mL (≈ 2.88 µM). The IC50 at 24 h in series [1] was 31.5 µg/mL (≈ 80.9 µM).
